Measurements taken from patent US20100292260A1, “6-VINYL PYRIMIDINE AND PYRIMIDINONE DERIVATIVES AND THE USE THEREOF” (priority 2005, published 2010).
Where two headings read alike, the source gives them in different places.

Experiments:
[1] = tested on: wild strain of HIV-1 NL4-3; assay: Inhibition of viral proliferation on culture cells (MT-4, MTT), wild strain; format: cell-based
Experimental: (§1) The biological activity of the compounds was evaluated on lymphoid cell lines MT-4 against the wild strain of HIV-1 NL4-3. The MT-4 cells were briefly infected with the appropriate HIV-1 or the infection was simulated to determine the cytoxicity, in the presence of different concentrations of potential inhibitor compounds. 5 days after the infection a colorimetric method was used that involves using a tetrazole salt (MTT) to evaluate the number of surviving cells. The mutant IRLL98 HIV-1 contains the following mutations in the coding sequence for RT:M41L, D67N, Y181C, M184V, R211K, T215Y (resistance to NRTI) and the mutations K101Q, Y181C, G190A (resistance to NNRTI). The H1V-1 mutants containing multi-NNRTI mutations, K103N or Y188L as mutants were supplied by the Medical Research Council Centralised Facility for AIDS Reagents, Herfordshire, UK.

HIV-1 mutant K103N = assay: Inhibition of viral proliferation on culture cells (MT-4, MTT), K103N mutant; format: cell-based
Experimental: as §1

HIV-1 mutant Y188L = assay: Inhibition of viral proliferation on culture cells (MT-4, MTT), Y188L mutant; format: cell-based
Experimental: as §1

HIV-1 mutant Y181C = assay: Inhibition of viral proliferation on culture cells (MT-4, MTT), Y181C mutant; format: cell-based
Experimental: as §1

[2] = target: T1, HIV-1 (recombinant) reverse transcriptase (Human immunodeficiency virus type 1 group M subtype B, UniProt P03366); assay: Enzyme test: reverse transcription reaction in vitro with recombinant RT, wild type; format: biochemical
T1 construct: 20-50 nM HIV-1 (recombinant) reverse transcriptase
Experimental: (§2) In a final volume of 25 microlitres the following reagents were mixed: 50 mM Tris-HCl pH 7.5, 0.25 mg/ml BSA, 0.5 mM DTT, 20-50 nM HIV-1 (recombinant) reverse transcriptase, nucleotide substrate dTTP marked radioactively (^3H, 4 Ci/mmol) and nucleic acid (poly(rA)/oligo(dT)). The concentrations of dTTP and poly(rA)/oligo(dT) in standard conditions were 5 μM and 0.5 μM, respectively.
(§3) The reaction mixture is incubated 10 min. at 37° C. and 20 μl are removed and deposited on a GF/C Whatman glass fibre filter measuring 25 mm in diameter. The filters are washed 3 times for 5 min. in 5% trichloroacetic acid and once for 5 min. in absolute alcohol. After being dried, the filters are immersed in a scintillating mixture (Packard) and the acid precipitable radioactivity is measured by a scintillation counter for β-emitting isotopes (Beckman).
(§4) The dose-response curves obtained by means of samples of enzyme activity in the presence of increasing doses of inhibitor were analysed according to the equation E(%)=Emax/([…], where E(%) is the fraction of enzyme activity that is measurable in the presence of each concentration of inhibitor, Emax is the activity in the absence of an inhibitor, I is the concentration of inhibitor. The ID50 was calculated by analysing data using the GraphPad Prism graphic interpolation programme (for Macintosh).

[3] = Cytotoxicity in mock-infected MT-4 cells (MTT); format: cell-based; settings: human
Experimental: as §1

HIV-1 mutant Y181L = assay: Inhibition of viral proliferation on culture cells (MT-4, MTT), Y181L mutant; format: cell-based; settings: Human immunodeficiency virus 1, MT4, read-out: EC50 Y181L
[4] = target: T2, reverse transcriptase containing the mutation K103N (Human immunodeficiency virus type 1 group M subtype B, UniProt P03366, K702N); assay: Enzyme test with mutated reverse transcriptase K103N; format: biochemical, HIV-1
T2 construct: cloning the gene of the mutated RT in an expression vector for prokariotic cells; made in house
Experimental: as §2, §3
(§5) In some experiments, the HIV-1 recombinant reverse transcriptase was substituted by a reverse transcriptase containing the mutations K.103N and Y181I. They were produced by cloning the gene of the mutated RT in an expression vector for prokariotic cells according to the method reported in the literature (Maga G, Amacker M, Ruel N, Hubscher U, Spadari S. Resistance to nevirapine of HIV-1 reverse transcriptase mutants: loss of stabilizing interactions and thermodynamic or steric barriers are induced by different single amino acid substitutions. J Mol Biol. Dec. 19, 1997; 274(5):738-47).
as §4

[5] = target: T3, reverse transcriptase containing the mutation Y181I (Human immunodeficiency virus type 1 group M subtype B, UniProt P03366, Y780I); assay: Enzyme test with mutated reverse transcriptase Y181I; format: biochemical, HIV-1
T3 construct: cloning the gene of the mutated RT in an expression vector for prokariotic cells; made in house
Experimental: as §2, §3, §5, §4

[6] = Table 1, recombinant RT wild type, read-out: ID50 WT
[7] = Human immunodeficiency virus 1, NL43, read-out: NL4-3 wt
[8] = Human immunodeficiency virus 1, read-out: K100N
[9] = Human immunodeficiency virus 1, read-out: Y188L
[10] = Table 2, enzyme test, read-out: WT
[11] = Human immunodeficiency virus 1, read-out: Y181C

SMILES | CC50 at 5 days [3] [µM] | activity in cell tests on wild type, in words [1] | EC50 [1, 7] [µM] | EC50 (HIV-1 mutant K103N; [8]) [µM] | EC50 (HIV-1 mutant Y188L; [9]) [µM] | IC50 [4] [µM] | IC50 [2, 10] [µM] | IC50 [5] [µM] | EC50 (HIV-1 mutant Y181C; [11]) [µM] | further results
COc1ccc(C#CCSc2nc(C(C)c3c(Cl)cccc3Cl)c(C)c(=O)[nH]2)cc1 (racemic) [Compound 27b] | – | – | – | – | – | – | – | – | – | EC50 ([1]; Table 3, cell test, read-out: NLA-3wt): 0.5 µM; EC50 (HIV-1 mutant K103N; Table 3, cell test, read-out: K103N): > 54.5 µM; EC50 (HIV-1 mutant Y188L; Table 3, cell test, read-out: Y188L): 24.8 µM; EC50 (HIV-1 mutant Y181C; Table 3, cell test, read-out: Y181C): 33.5 µM
C=Cc1nc(SC)nc(N(C)C)c1I [Compound 6a] | – | – | – | – | – | – | – | – | – | IC50 [2, 6]: > 400 µM
C=Cc1cc(N(C)C)nc(SC)n1 [Compound 6c] | 57.4 | – | – | – | – | – | – | – | – | EC50 ([1]; Human immunodeficiency virus 1, NL43, MT4, read-out: EC50 NL4-3 wt): > 128 µM; EC50 (HIV-1 mutant K103N; Human immunodeficiency virus 1, MT4, read-out: EC50 K103N): > 128 µM; EC50 (HIV-1 mutant Y181L): > 128 µM; IC50 [2, 6]: > 400 µM
COc1ccc(/C=C/CSc2nc(Cc3c(Cl)cccc3Cl)c(C)c(=O)[nH]2)cc1 [Compound 26a] | 0.96 | nanomolar and subnanomolar activity | 0.015 | > 0.96 | > 0.96 | 9 | 0.007 | > 20 | > 0.96 | activity in cell tests on mutant K103N, in words (HIV-1 mutant K103N): micromolar and submicromolar activity; activity in cell tests on mutant Y188L, in words (HIV-1 mutant Y188L): micromolar and submicromolar activity; activity in cell tests on mutant Y181C, in words (HIV-1 mutant Y181C): micromolar and submicromolar activity
Cc1c(Cc2c(Cl)cccc2Cl)nc(SCC=Cc2ccc([N+](=O)[O-])cc2)[nH]c1=O [Compound 26b] | > 10.8 | – | > 10.8 | > 10.8 | > 10.8 | > 20 | 3.81 | > 20 | > 10.8 | –
CCc1c(Cc2c(Cl)cccc2Cl)nc(SCC=Cc2ccc(C#N)cc2)[nH]c1=O [Compound 26c] | > 54.8 | – | 1.73 | > 54.8 | – | – | 0.188 | – | – | Y181C, % at given concentration (HIV-1 mutant Y181C; Table 2, at 54.82): 41% at
Cc1c(Cc2c(Cl)cccc2Cl)nc(SCC=Cc2ccc(N(C)C)cc2)[nH]c1=O [Compound 26d] | > 54.4 | – | > 54.4 | > 54.4 | > 54.4 | – | 0.788 | – | > 54.4 | –
CCc1c(Cc2c(Cl)cccc2Cl)nc(SCC=Cc2ccc(OC)cc2)[nH]c1=O [Compound 26e] | 0.19 | nanomolar and subnanomolar activity | 0.0015 | > 0.19 | > 0.19 | > 20 | 0.056 | > 20 | > 0.19 | –
CCc1c(Cc2c(Cl)cccc2Cl)nc(SCC=Cc2ccc([N+](=O)[O-])cc2)[nH]c1=O [Compound 26f] | – | – | – | – | – | > 20 | 2.5 | > 20 | – | –
COc1ccc(C=CCSc2nc(C(C)c3c(Cl)cccc3Cl)c(C)c(=O)[nH]2)cc1 (stereo not drawn) [Compound 26g] | > 10.8 | nanomolar and subnanomolar activity | 0.009 | 2.47 | 1.26 | > 20 | 0.018 | > 20 | 3.6 | –
Cc1c(C(C)c2c(Cl)cccc2Cl)nc(SCC=Cc2ccc([N+](=O)[O-])cc2)[nH]c1=O (stereo not drawn) [Compound 26h] | – | – | – | – | – | > 20 | 0.102 | > 20 | – | –
Cc1c(Cc2c(F)cccc2F)nc(SCC=Cc2ccc([N+](=O)[O-])cc2)[nH]c1=O [Compound 26i] | 11.7 | – | 0.26 | > 11.7 | > 11.7 | > 20 | 11.9 | > 20 | > 11.7 | –
COc1ccc(C=CCSc2nc(Cc3c(F)cccc3F)c(C)c(=O)[nH]2)cc1 [Compound 26l] | 3.93 | nanomolar and subnanomolar activity | 0.043 | > 3.93 | > 3.93 | > 20 | 0.25 | > 20 | > 3.93 | –
Cc1c(C(C)c2c(F)cccc2F)nc(SCC=Cc2ccc([N+](=O)[O-])cc2)[nH]c1=O (stereo not drawn) [Compound 26m] | > 11.3 | – | 0.14 | > 11.3 | > 11.3 | > 20 | 0.283 | > 20 | > 11.3 | –
COc1ccc(C=CCSc2nc(C(C)c3c(F)cccc3F)c(C)c(=O)[nH]2)cc1 (stereo not drawn) [Compound 26n] | > 11.7 | nanomolar and subnanomolar activity | 0.0002 | 0.26 | 0.07 | 3.7 | 0.292 | > 20 | 0.13 | activity in cell tests on mutant K103N, in words (HIV-1 mutant K103N): micromolar and submicromolar activity; activity in cell tests on mutant Y188L, in words (HIV-1 mutant Y188L): micromolar and submicromolar activity; activity in cell tests on mutant Y181C, in words (HIV-1 mutant Y181C): micromolar and submicromolar activity
Cc1c(C(C)c2c(F)cccc2F)nc(SCC=Cc2ccc(C#N)cc2)[nH]c1=O (stereo not drawn) [Compound 26o] | > 59.1 | – | 0.14 | > 59.1 | > 59.1 | – | 0.161 | – | > 59.1 | –
CCc1c(C(C)c2c(F)cccc2F)nc(SCC=Cc2ccc(OC)cc2)[nH]c1=O (stereo not drawn) [Compound 26p] | 5.54 | nanomolar and subnanomolar activity | 0.0002 | 1.02 | 0.63 | 0.4 | 0.016 | > 20 | 0.7 | activity in cell tests on mutant K103N, in words (HIV-1 mutant K103N): micromolar and submicromolar activity; activity in cell tests on mutant Y188L, in words (HIV-1 mutant Y188L): micromolar and submicromolar activity; activity in cell tests on mutant Y181C, in words (HIV-1 mutant Y181C): micromolar and submicromolar activity
CCc1c(C(C)c2c(F)cccc2F)nc(SCC=Cc2ccc([N+](=O)[O-])cc2)[nH]c1=O (stereo not drawn) [Compound 26q] | 5.75 | nanomolar and subnanomolar activity | 0.0004 | > 5.75 | 1.94 | > 20 | 0.009 | > 20 | > 5.75 | –
CCc1c(C(C)c2c(F)cccc2F)nc(SCC=Cc2ccc(C#N)cc2)[nH]c1=O (stereo not drawn) [Compound 26r] | 27.2 | – | 0.59 | > 27.2 | > 27.2 | – | 0.048 | – | > 27.2 | –
Cc1c(Cc2c(F)cccc2F)nc(SCC#Cc2ccc([N+](=O)[O-])cc2)[nH]c1=O [Compound 27a, 6-(2,6-Difluorobenzyl)-2-(3-(4-nitrophenyl)-propynylsulfanyl)-5-methylpyrimidine-4(3H)-one] | > 58.6 | – | – | – | > 58.6 | – | – | – | > 58.6 | EC50 ([1]; Human immunodeficiency virus 1, NL43, read-out: NLA-3wt): 40.1 µM; EC50 (HIV-1 mutant K103N; Human immunodeficiency virus 1, read-out: K103N): > 58.6 µM; IC50 ([2]; Table 3, enzyme test, read-out: WT): 0.416 µM
C=Cc1cc(N(CC)CC)nc(S(C)(=O)=O)n1 [MB3B, reference compound] | – | – | – | – | – | > 400 | – | > 400 | – | IC50 [2, 6]: 21.3 µM
